Data set [1] deals with A2780/WT (wild-type) cells. Nature of the data set: Sulforhodamine B (SRB) cytotoxicity assay in A2780/WT cells. The class given is cell-based. The procedure: (§1) Each of the testing conditions used in this study in both A2780/WT (wild-type) and A2780/DX5 cells were repeated in five to fifteen experiments that were performed on separate days. Each experiment consisted of one microtiter plate with at least eight individual assays of a given drug treatment condition on the plate. The sulforhodamine B (SRB) assay was used to assess cytotoxicity and absorbance at 570 nm (A570) in order to calculate the percentage of cell control (or percent cell survival) for the various treatment conditions in the plate wells.
(§2) Roswell Park Memorial Institute (RPMI 1640) medium, fetal bovine serum (FBS), and L-glutamine were purchased from Gibco BRL. Drugs were dissolved in sterile dimethylsulfoxide (DMSO), from American Type Culture Collection (ATCC) for stock solutions (2.5 to 5.0 mM). Subsequent dilutions were made using cell culture medium (prior to adding the drug to cells). SRB was purchased from Sigma and dissolved in 1.0% acetic acid. Trichloroacetic acid was purchased from VWR International.
(§3) Cells were manipulated in a Class IIA/B3 Biological Safety Cabinet (Forma Scientific) and maintained at 37°C in a humidified atmosphere containing 5% CO2 in a water-jacketed cell culture incubator (Forma Scientific). Cells were counted using a Coulter-Zl counter (Beckman-Coulter). Following drug treatment, plates were washed using a Biomek 2000 station (Beckman) and, following exposure to SRB dye, plates were washed using an automated plate washer (Model EL404, Bio-Tek Instruments). Percentage of control was correlated to A570 values and determined using a Model EL800 plate reader (Bio-Tek Instruments).
(§4) Population doubling times for the two cell lines used in this study encompassed a total of five cell doublings corresponding to approximately 5 days for A2780/WT and A2780/DX5 cells. A2780/WT and A2780/DX5 cells were cultured in RPMI 1640 medium supplemented with 10% fetal bovine serum and 1 mM of L-glutamine. Both cell lines were maintained as monolayered cultures in T-25 or T-75 flasks and then seeded to microtiter plate wells for experiments described herein. Prior to SRB assays, cell viability was monitored by evaluation of microtiter plate wells. Dead cells detach and float while living cells remain attached to the bottom of the cell well.
(§5) The sulforhodamine B (SRB) cytotoxicity assay (see, Skehan P, et al., New colorimetric cytotoxicity assay for anticancer-drug screening. J. Natl. Cancer Inst. 82: 1107-1112 (1990)) was used to determine the cytotoxic effects of BNP1350, SN-38, topotecan, 9-NH2-CPT, and 9-NO2-CPT on cell growth in vitro. Briefly, after the medium was aspirated from individual plate wells, trichloroacetic acid (100 µL of 10.0% solution) was added to each well, and the plates were incubated at 4°C for at least 1 hour. The plates were washed five-times with water using an automated microplate washer (Model EL 404, Bio-Tek Instruments), SRB solution (100 µL of 0.4 grams SRB dissolved in 100 mL 1.0% acetic acid) was added, and plates remained at room temperature for 15 minutes. The plates were then washed five-times using acetic acid (1.0 percent), air dried, and bound dye was solubilized in Tris base (150 µL, 10 mM). Plates were agitated (gently) for 5 minutes and the absorbance values of the SRB dye-protein adduct at a 570 nm wavelength (A570) were determined using an automated microtiter plate reader equipped with an A570 filter (Model EL800, BioTek Instruments). Table VII. Summary of Cytotoxicity Experiments in A2780/WT and DX5 Cells
A general note: The SRB assay estimates cell density from bound dye.

The test system of another data set is A2780/DX5 cells. Briefly: Sulforhodamine B (SRB) cytotoxicity assay in A2780/DX5 cells. The class given is cell-based. Conditions: for IC50 Ratio: A2780/DX5 versus A2780/WT; for IC50: SRB assay. The procedure:
as §1, §2, §3, §4, §5

The next data set deals with human plasma proteins. Nature of the data set: Percent of free camptothecin analogs in human plasma (dialysis, HPLC). The class given is in vitro ADME. Conditions: 100 nM Compound Concentrations. The procedure:
Stocks of various camptothecin analogs were prepared in DMSO. […] Optimum HPLC detection conditions for each camptothecin analog were developed using traditional HPLC methods. Table VIII. Percent of Free Camptothecin Analogs in Human Plasma (100 nM Compound Concentrations)

For data set [2] the following is noted: over the first 48 hours, IV camptothecin sodium; cited from earlier work.
Data set [3] concerns Angiogenesis was induced by fibroblast growth factor. Conditions: dose levels of 210 mg/kg; cited from earlier work.
The conditions of data set [4]: clinical studies in Japan alone; cited from earlier work.
The conditions of data set [5]: cited from earlier work.

The source of these data is patent publication EP2197279B1, “C10-SUBSTITUTED CAMPTOTHECIN ANALOGS” (BIONUMERIK PHARMACEUTICALS, INC., priority 2007, dated 2009).

Broadly, the IC50 is the concentration needed to halve the response being measured. A low value points to greater potency in that assay.

“7-(2'-Trimethylsilanyl) ethyl-10-(4-moroholinecarbonyloxy) camptothecin [Compound 12]”: the values for the IC50 (in data set [1]; with A2780/DX5 cells) were 65.6 nM and 135 nM, respectively. For the same molecule, the “IC50 Ratio” value in the data set with A2780/DX5 cells was 2.1.

The molecule “7-(2'-Trimethylsilanyl) ethyl-10-(ethoxycarbonylmethoxyl camptothecin [Compound 9]” gave an IC50 in data set [1] of 73.9 nM. In the data set on A2780/DX5 cells, the “IC50 Ratio” value is 1.7 and the IC50 is 123 nM.

As for `CC[C@@]1(O)C(=O)OCc2c1cc1n(c2=O)Cc2cc3ccccc3nc2-1` [CPT, (S)-4-Ethyl-4-hydroxy-1H-pyrano[3',4':6,7]indolizino[1,2-b]quinoline-3,14(4H,12H)-dione], the “Percent of Free CPTs” value in the data set with human plasma proteins came to 0%. In addition, the “mean urine recovery of CPT” value in data set [2] is 17.4%.

With `CCc1c2c(nc3ccc(OC(=O)N4CCC(N5CCCCC5)CC4)cc13)-c1cc3c(c(=O)n1C2)COC(=O)[C@]3(O)CC` [CPT-11, 7-ethyl-10-[4-(1-piperidino)-1-piperidino] carbonyloxy camptothecin], the neovascularization entry in data set [3] is recorded as “significant reduction of neovascularization”. Also, the “patient deaths directly attributable to drug toxicity” value in data set [4] was “approximately 100”.

In data set [1], `CC[C@@]1(O)C(=O)OCc2c1cc1n(c2=O)Cc2c-1nc1ccc(OC)cc1c2CC[Si](C)(C)C` [Compound 1, 7-(2'-Trimethylsilanyl) ethyl-10-methoxy camptothecin] returned an IC50 of 16.8 nM. Further, in the data set on A2780/DX5 cells, the “IC50 Ratio” value is listed as 1.3 and 21.9 nM corresponded to half-maximal inhibition (IC50). In addition, the “Percent of Free CPTs” value in the data set on human plasma proteins is 3.5%.

Regarding `CC[C@@]1(O)C(=O)OCc2c1cc1n(c2=O)Cc2c-1nc1ccc(OCOC)cc1c2CC[Si](C)(C)C` [Compound 2, 7-(2'-Trimethylsilanyl) ethyl-10-methoxymethoxy camptothecin], the IC50 stood at 43.4 nM in data set [1] and 64.8 nM in the data set on A2780/DX5 cells. The “IC50 Ratio” value in the data set with A2780/DX5 cells is reported as 1.5.

As for `CC[C@@]1(O)C(=O)OCc2c1cc1n(c2=O)Cc2c-1nc1ccc(OCCCO)cc1c2CC[Si](C)(C)C` [Compound 3, 7-(2'-trimethylsilanyl) ethyl-10-(3'-hydroxypropoxy) camptothecin], the IC50 came out at 15 nM in data set [1] and 37.6 nM in the data set on A2780/DX5 cells. Also, the “IC50 Ratio” value in the data set on A2780/DX5 cells stood at 2.5. In the data set with human plasma proteins, the “Percent of Free CPTs” value amounted to 6.8%.

`CC[C@@]1(O)C(=O)OCc2c1cc1n(c2=O)Cc2c-1nc1ccc(OCCOC)cc1c2CC[Si](C)(C)C` [Compound 4, 7-(2'-Trimethylsilanyl)ethyl-10-(2'-methoxyethoxy) camptothecin]: the IC50 in data set [1] was 70.1 nM; with A2780/DX5 cells it was 70.6 nM. Also, the “IC50 Ratio” value with A2780/DX5 cells is listed as 1.0. Also, the “Percent of Free CPTs” value in the data set on human plasma proteins is listed as 6%.

On to `CC[C@@]1(O)C(=O)OCc2c1cc1n(c2=O)Cc2c-1nc1ccc(OC(C)C)cc1c2CC[Si](C)(C)C` [Compound 5, 7-(2'-Trimethylsilanyl) ethyl-10-isopropoxy camptothecin], for which the IC50 in data set [1] stood at 86.2 nM. In the data set on A2780/DX5 cells, the “IC50 Ratio” value is 1.2 and the IC50 amounted to 103 nM.

Turning to `CCOc1ccc2nc3c(c(CC[Si](C)(C)C)c2c1)C(O)n1c-3cc2c(c1=O)COC(=O)[C@]2(O)CC` (stereo partly drawn) [Compound 6, 5-hydroxy-7-(2'-trimethylsilanyl) ethyl-10-ethoxy camptothecin], the IC50 stood at 158 nM in data set [1] and 168 nM in the data set on A2780/DX5 cells. The “IC50 Ratio” value in the data set with A2780/DX5 cells is 1.1.

Take `CC[C@@]1(O)C(=O)OCc2c1cc1n(c2=O)C(O)c2c-1nc1ccc(OCC(N)=O)cc1c2CC[Si](C)(C)C` (stereo partly drawn) [Compound 7, 5-Hydroxy-7-(2'-trimethylsilanyl) ethyl-10-amidomethoxy camptothecin]: the IC50 in data set [1] was 266 nM; in the data set with A2780/DX5 cells it was over 650 nM.

`CC[C@@]1(O)C(=O)OCc2c1cc1n(c2=O)Cc2c-1nc1ccc(OC(=O)N(C)C)cc1c2CC[Si](C)(C)C` [Compound 8, 7-(2'-trimethylsilanyl) ethyl-10-(dimethylcarbamoyloxy) camptothecin]: the values for the IC50 (in data set [1]; with A2780/DX5 cells) were 54.8 nM and 61.1 nM, respectively. For the same molecule, in the data set on A2780/DX5 cells, the “IC50 Ratio” value came out at 1.1. Moreover, in the data set with human plasma proteins, the “Percent of Free CPTs” value amounted to 6.4%.

Turning to `CC[C@@]1(O)C(=O)OCc2c1cc1n(c2=O)Cc2c-1nc1ccc(OCC(N)=O)cc1c2CC[Si](C)(C)C` [Compound 10, 7-(2'-Trimethylsilanyl) ethyl-10-(amidomethyloxy) camptothecin], half-maximal inhibition in data set [1] (IC50) was put at 34.1 nM. Also, in the data set on A2780/DX5 cells, the “IC50 Ratio” value came out at 11.8 and the IC50 worked out at 401 nM. Also, the “Percent of Free CPTs” value in the data set on human plasma proteins was 25%.

As to `CC[C@@]1(O)C(=O)OCc2c1cc1n(c2=O)Cc2c-1nc1ccc(OC(=S)N(C)C)cc1c2CC[Si](C)(C)C` [Compound 13], the IC50 is 117 nM in data set [1] and 228 nM in the data set with A2780/DX5 cells. Also, in the data set with A2780/DX5 cells, the “IC50 Ratio” value came out at 2.0.

As for `CCOc1ccc2nc3c(c(CC[Si](C)(C)C)c2c1)Cn1c-3cc2c(c1=O)COC(=O)[C@]2(O)CC` [Compound 14, 7-(2'-Trimethylsilanyl) ethyl-10-ethoxy camptothecin], the figures for the concentration for half-maximal inhibition (IC50) (in data set [1]; in the data set on A2780/DX5 cells) were 14.1 nM and 17.2 nM, respectively. Further, the “IC50 Ratio” value in the data set with A2780/DX5 cells came out at 1.2.

Turning to `CC[C@@]1(O)C(=O)OCc2c1cc1n(c2=O)Cc2c-1nc1ccc(OCC#N)cc1c2CC[Si](C)(C)C` [Compound 15, 7-(2'-Trimethylsilanyl) ethyl-10-cyanomethoxy camptothecin], the figures for the IC50 (in data set [1]; in the data set with A2780/DX5 cells) were 9.6 nM and 18.9 nM, respectively. Moreover, in the data set with A2780/DX5 cells, the “IC50 Ratio” value is 2.0.

`CCc1c2c(nc3ccc(O)cc13)-c1cc3c(c(=O)n1C2)COC(=O)[C@]3(O)CC` [SN-38, 10-hydroxy-7-ethyl camptothecin]: the “Percent of Free CPTs” value in the data set with human plasma proteins turned out to be 15%.

For `CC[C@@]1(O)C(=O)OCc2c1cc1n(c2=O)Cc2cc3c(CN(C)C)c(O)ccc3nc2-1` [Topotecan, 9-dimethylaminomethyl-10-hydroxy camptothecin], the “Percent of Free CPTs” value with human plasma proteins was found to be 100%.

On to `CC[C@@](O)(C(=O)O)c1cc2n(c(=O)c1CO)Cc1cc3ccccc3nc1-2` [carboxylate form of CPT], for which, in data set [5] (carboxylate form versus lactone), the “reduction of anti-tumor activity” value was “at least 10 fold”. Further, in data set [5] (sodium hydroxide formulation, hydrolysed E-ring), the “anti-tumor potency relative to the non-hydrolyzed lactone form of CPT” value is “approximately one-tenth or less”.
